# Columns and labels:
# Assay type in all cases: in vivo, dog
# [1] = system: diabetic (pancreatectomized) dogs; experiment: continuous insulin infusion at Max Rate and reduced rates, plasma glucose plateau under fasting conditions
# Description: The initial step in the protocol involved determining the required insulin infusion rate of either regular or phosphorylated insulin that would, under fasting conditions, reduce plasma glucose from normal at 7:30 a.m. to a plateau of 60 mg %, 2-4 hours later. […] The rate that produced this reduction of blood glucose to 60 mg % was termed "Max Rate".
# On subsequent days, identical experiments were conducted on all 4 diabetic dogs with the exception that the animals received a reduced rate of insulin infusion equal to either 1) 62% of the "Max Rate" as shown in FIG. 6 or 2) 36% of the "Max Rate" as shown in FIG. 7.
# In this test, the dogs infused with regular insulin reached a glucose threshold of 180 mg % (renal threshold at which the kidneys begin to spill glucose into the urine). The phosphorlated infused dogs reached a lower average glucose level of 120-130 mg %.
# All protocols described were conducted in triplicate on all dogs.
# [2] = system: normal, fasted, beagle dogs; experiment: intravenous bolus, rate of decline of plasma glucose in 15 minutes following the injection; settings: i.v. bolus, phosphorylated insulin = product of Example 2
# Description: Phosphorylated insulin produced by the process described in Example 2 and regular insulin (Iletin II pure Pork) were injected as an intravenous bolus into 4 normal, fasted, beagle dogs. Each insulin was injected at a wide range of dosage with not more than one experiment on each dog on any given day. The plasma glucose of each dog was measured (YSI) at 2 minute intervals for 15 minutes following the injection and the rate of decline of glucose from normal was determined in this period for each individual insulin dose. When the data from FIG. 8 are analysed, it can be shown that the % change in insulin dose required to produce a given increase in glucose drop (glucose disposal) is greater for phosphorylated than for regular (unmodified) insulin. Thus, for example, in Table 4, a 28% increase in dose of regular insulin from that which produced a glucose drop of 3.5 mg %/min., caused the "rate of drop of glucose" to increase from 3.5 to 4.0 mg %/min. A 66 % increase in dose of phosphorylated insulin was required to produce the same effect.
# diabetic dogs = experiment: continuous 24 hour infusion, increase of infusion rate needed to lower 8 a.m. fasting plasma glucose; settings: two diabetic dogs, phosphorylated insulin = product prepared as Example 6 (FIG. 12)
# Description: Two diabetic dogs were fed a single daily meal of 1100 kcal at 2:00 p.m. daily and given regular (i.e. fast acting) insulin at meal time.
# In addition, dogs were infused continuously, 24 hours per day with either regular or phosphorylated insulin (product prepared as example 6).
# During repeated experiments the minimum insulin infusion rate required to produce a mean 8 a.m. fasting plasma glucose of 95 mg % was determined for each insulin.
substance,measurement,setting,value
"regular insulin: regular (unmodified) insulin, fast acting; Iletin II pure Pork in Example 32 [reference compound]",plasma glucose plateau,"[1]; infusion at Max Rate, fasting, last 2 hours, phosphorylated insulin = product of Example 3, 4 diabetic dogs (FIG. 5)",60 mg %
same,average glucose level reached,"[1]; infusion rate reduced to 36% of Max Rate, phosphorylated insulin = product of Example 3 (FIG. 7)",180 mg %
same,average plasma glucose plateau,"[1]; infusion rate reduced to 62% of Max Rate, phosphorylated insulin = product of Example 3 (FIG. 6)",150 mg %
same,Required % Increase In Insulin Dose,[2]; change in rate of drop of glucose from 1.0 to 1.5 mg %/min,49%
same,Required % Increase In Insulin Dose,[2]; change in rate of drop of glucose from 1.5 to 2.0 mg %/min,33%
same,Required % Increase In Insulin Dose,[2]; change in rate of drop of glucose from 2.0 to 2.5 mg %/min,25%
same,Required % Increase In Insulin Dose,[2]; change in rate of drop of glucose from 2.5 to 3.0 mg %/min,20%
same,Required % Increase In Insulin Dose,[2]; change in rate of drop of glucose from 3.0 to 3.5 mg %/min,39%
same,Required % Increase In Insulin Dose,[2]; change in rate of drop of glucose from 3.5 to 4.0 mg %/min,28%
same,Required % Increase In Insulin Dose,[2]; change in rate of drop of glucose from 4.0 to 4.5 mg %/min,34%
same,increase of insulin infusion rate required to drop the fasting glucose from 95 to 70 mg %,diabetic dogs,20%

# Source: patent US5453417A, “Process for the phosphorylation of insulin and product produced thereby” (The Hospital for Sick Children, priority 1991, dated 1995)
